The text below walks through data of the supplement of paper PMC10307832.

Common to all, as to test: relative viability (nuclei count vs DMSO), 5 days (fraction); higher = more cells survive
Compound in the assay “QS11 + Luminespib”: C1CC2=C(C1)C=C(C=C2)OC3=NC(=C4C(=N3)N(C=N4)CC5=CC=C(C=C5)C6=CC=CC=C6)N[C@@H](CC7=CC=CC=C7)CO [QS11] + CCNC(=O)c1noc(-c2cc(C(C)C)c(O)cc2O)c1-c1ccc(CN2CCOCC2)cc1 [Luminespib] (partner 0.01 µM)
An outline of the steps:
(§1)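 Lung cancer cell lines in 1536-well plates got either a single drug or a fixed anchor-drug dose together with five library-drug doses (not always all listed) in √10 steps, by pin tool, on the day after seeding. Nuclei were counted after 5 days, and relative viability is the treated-to-vehicle ratio of nuclei counts. Values are medians of duplicate plates.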

Compound in the assay “AZ628 + Linsitinib”: CC1=C(C=C(C=C1)NC(=O)C2=CC(=CC=C2)C(C)(C)C#N)NC3=CC4=C(C=C3)N=CN(C4=O)C [AZ628] + C[C@]1(O)C[C@@H](c2nc(-c3ccc4ccc(-c5ccccc5)nc4c3)c3c(N)nccn32)C1 [Linsitinib] (partner 1 µM)
The method, boiled down:
as §1

Compound in assay [1]: C[As](C)SC[C@H](NC(=O)CC[C@H](N)C(=O)O)C(=O)NCC(=O)O [Darinaparsin] + Cc1cc(Nc2cc(N3CCN(C)CC3)nc(Sc3ccc(NC(=O)C4CC4)cc3)n2)n[nH]1 [Tozasertib] (partner 0.1 µM)
The method, boiled down: as §1

Compound in assay [2]: C[As](C)SC[C@H](NC(=O)CC[C@H](N)C(=O)O)C(=O)NCC(=O)O [Darinaparsin] + CS(=O)(=O)N1CCN(Cc2cc3nc(-c4cccc5[nH]ncc45)nc(N4CCOCC4)c3s2)CC1 [Pictilisib] (partner 1 µM)
An outline of the steps: as §1

Regarding LCLC-97TM1, the relative viability with QS11 + Luminespib (first compound 0.08 µM) stood at 0.709; with QS11 + Luminespib (first compound 0.253 µM), 0.907; with QS11 + Luminespib (first compound 2.53 µM), 0.768; with QS11 + Luminespib (first compound 8 µM) it was 0.69; with AZ628 + Linsitinib (first compound 0.08 µM) it was 0.212; with AZ628 + Linsitinib (first compound 0.253 µM), 0.24. The relative viability with AZ628 + Linsitinib (first compound 0.8 µM) amounted to 0.179; with AZ628 + Linsitinib (first compound 2.53 µM), 0.202; in the assay with AZ628 + Linsitinib (first compound 8 µM), 0.136; in assay [1] (first compound 0.08 µM) it was 0.215; in assay [1] (first compound 0.8 µM), 0.199; in assay [1] (first compound 2.53 µM), 0.194. Besides, the relative viability in assay [1] (first compound 8 µM) stood at 0.197; in assay [2] (first compound 0.08 µM), 0.191; in assay [2] (first compound 0.8 µM), 0.153; in assay [2] (first compound 2.53 µM), 0.15; in assay [2] (first compound 8 µM), 0.178.
